The target of test [1] is T1, PD-1 (Mus musculus, UniProt Q02242).
T1 construct: endogenous in cells
T1 sequence (Q02242 25-288): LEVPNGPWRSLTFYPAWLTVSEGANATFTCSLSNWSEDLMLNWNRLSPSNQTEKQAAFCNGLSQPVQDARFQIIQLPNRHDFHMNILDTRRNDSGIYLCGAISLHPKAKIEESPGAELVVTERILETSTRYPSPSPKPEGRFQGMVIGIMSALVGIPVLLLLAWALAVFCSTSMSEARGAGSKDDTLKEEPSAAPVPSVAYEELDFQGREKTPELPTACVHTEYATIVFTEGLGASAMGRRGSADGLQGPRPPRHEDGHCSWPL
The test is described as follows: Immunoprecipitation of PD-1 and Western blot of PD-1 bound ITK and SHP2. It is filed as cell-based. The note with it: pre-activated primary mouse CD4 T cells, PD-1 immune-precipitated 5 minutes after treatment, Western blot, compared to control Ab. Here is the method: FIGS. 4 and 5 show the modulation of ITK and its effects on immune response. […] However, when there is more ITK than SHP2, a stimulatory signal was generated. When there is the same amount of ITK and SHP2, the immune response was either inhibitory or activating. […] Thus, an activator of ITK would have the effect of enhancing an immune response and an inhibitor of ITK can suppress the immune response. […] PD-1 was immune-precipitated with beads 5 minutes after pre-activated primary mouse CD4 T cells were treated with PD-L1-IgG, PD-L2-IgG or anti-PD-1 mouse blocking antibody (clone RMP1-14).

The test system of test [2] is human CD4 T cells. The test is described as follows: Flow cytometry of Tcm and Tte after PD-L2-IgG treatment of stimulated T cells. It is filed as cell-based. Particulars: 25 μg/mL, 48 hours after treatment, vs untreated, p<0.05. Here is the method:
After 72 hours, the cells were treated with PD-L2-IgG at concentration of 25 μg/mL. Control wells were left untreated. Forty-eight hours after treatment, the cells were collected, washed and stained with the fluorophore labeled antibodies, and analyzed by flow cytometry. Tom were defined as CD45RO^high/CD62L^high/CD45RA^low. Exhausted T cells or terminal effector T cells (“Tte”) were defined as CD45RO^low/CD62L^low/CD45RA^high.

Consider “PD-L2-IgG: PD-L2 fused to IgG, used to treat T cells; sequence not stated at the place”, for which, in test [1], the “ITK/SHP2 ratio (PD-1 bound ITK and SHP2)” value is “increased”. In test [2], the “Tcm (CD45RO high/CD62L high/CD45RA low)” value is reported as “significant increase” and the “Tte (exhausted or terminal effector T cells, CD45RO low/CD62L low/CD45RA high)” value is listed as “significant decrease”.

The values are drawn from patent publication US20250051419A1, “POLYPEPTIDE MODULATORS” (Georgiamune Inc., priority 2021, published 2025).
